Reference: US11713320B2, “5-heteroaryl substituted indazole-3-carboxamides and preparation and use thereof” (BioSplice Therapeutics, Inc., priority 2018, dated 2023)

Tests used:
[1] = system: primary human mesenchymal stem cells (hMSCs); assay: Tenocyte differentiation assay in hMSCs (SCXA staining); format: cell-based; conditions: given for EC50 of >100 μM; not defined in the method
Excerpt: Representative compounds were screened using primary human mesenchymal stem cells (hMSCs) to determine their ability to induce tenocyte differentiation (process by which tendon is developed).
Human Mesenchymal Stem Cell Culture: Primary human mesenchymal stem cells (hMSCs) were purchased from Lonza (Walkersville, Md.) and expanded in Mesenchymal Stem Cell Growth Media (Lonza). Cells between passage 3 and 6 were used for the experiments.
Cells were fixed using 4% formaldehyde (Electron Microscopy Sciences), and stained with anti-Sclerasis (anti-SCXA) antibodies (Abgent, San Diego, Calif.) [Webb S., et. al., Retinoic acid receptor signaling preserves tendon stem cell characteristics and prevents spontaneous differentiation in vitro, Stem Cell Research & Therapy 2016, 7:45] overnight at 4° C. […] Number of cells positive for SCXA in each well was quantified using the CellInsight CX5. Data was normalized to the average of 12 DMSO treated wells on the same plate using Dotmatics Studies module. The normalized averages (fold change over DMSO) of 3 replicate wells for each compound concentration were calculated. Due to solubility limitations of some of the compounds, values for higher doses were manually corrected and curve fitting and EC50 determinations were performed using Dotmatics Studies.

[2] = system: primary human fibroblasts derived from IPF patients (LL29 cells) treated with TGF-β1; assay: Inhibition of the fibrotic process: αSMA staining in TGF-β1 treated LL29 fibroblasts; format: cell-based; conditions: % cells positive for αSMA, TGF-β1 20 ng/mL, 4 days
Method: Representative compounds were screened using primary human fibroblasts (derived from IPF patients) treated with TGF-β1 to determine their ability to inhibit the fibrotic process.
LL29 cells were plated at 1,500 cells/well in 70 μL/well F12 medium supplemented with 1% Fetal Bovine Serum. […] Wells treated with TGF-β1 and containing DMSO were used as positive control, and cells with only DMSO were negative control. […] Following incubation for 4 days, SYTOX green nucleic acid stain (Life Technologies [Thermo Fisher Scientific]) was added to the wells at a final concentration of 1 μM and incubated at room temperature for 30 min.

[3] = system: SW480 colon carcinoma cells; assay: Cell viability assay (CellTiter-Glo) in SW480 cells; format: cell-based, human; conditions: four days
Method: Representative compounds were screened using the assay procedure to assess the effect on cell viability as described below.
SW480 colon carcinoma cells were transduced with a lentiviral vector expressing luciferase with a human Sp5 promoter consisting of a sequence of eight TCF/LEF binding sites. SW480 cells stably expressing the Sp5-Luc reporter gene and a hygromycin resistance gene were selected by treatment with 150 μg/mL of hygromycin for 7 days. These stably transduced SW480 cells were expanded in cell culture and used for all further screening activities.
For the Cell Viability Assays, the cells were plated at 2,000 cells/well in 384-well plates with a DMEM medium containing 1% fetal bovine serum, and 1% Penicillin-Streptomycin and incubated for […] at 37° C. and 5% CO2. Eight replicates of DMSO-treated cells served as controls and cells treated with compound were performed in duplicate.
After incubation, 10 μL of CellTiter-Glo (Promega) was added to each well allowed to incubate for approximately 12 minutes. This reagent “results in cell lysis and generation of a luminescent signal proportional to the amount of ATP present. The amount of ATP is directly proportional to the number of cells present in culture, in agreement with previous reports. The CellTiter-Glo® Assay generates a “glow-type” luminescent signal, produced by the luciferase reaction (Promega.com)”.

[4] = system: Wnt activity (Sp5-Luc reporter, TCF/LEF binding sites) in SW480 colon carcinoma cells; assay: Screening assay for Wnt activity: Sp5-Luc reporter gene assay in SW480 cells; format: cell-based, human; conditions: 36 to 48 hours
Excerpt: The screening assay for Wnt activity is described as follows. Reporter cell lines can be generated by stably transducing cancer cell lines (e.g., colon cancer) or primary cells (e.g., IEC-6 intestinal cells) with a lentiviral construct that includes a Wnt-responsive promoter driving expression of the firefly luciferase gene.
SW480 colon carcinoma cells were transduced with a lentiviral vector expressing luciferase with a human Sp5 promoter consisting of a sequence of eight TCF/LEF binding sites. SW480 cells stably expressing the Sp5-Luc reporter gene and a hygromycin resistance gene were selected by treatment with 150 μg/mL of hygromycin for 7 days. These stably transduced SW480 cells were expanded in cell culture and used for all further screening activities. […] For Sp5-Luc reporter gene assays, the cells were plated at 4,000 cells/well in 384-well plates with a DMEM medium containing 1% fetal bovine serum, and 1% Penicillin-Streptomycin and incubated for 36 to 48 hours at 37° C. and 5% CO2. Following incubation, 15 μl of BriteLite Plus luminescence reagent (Perkin Elmer) was added to each well of the 384-well assay plates. The plates were placed on an orbital shaker for 2 min and then luminescence was quantified using the Envision (Perkin Elmer) plate reader. Readings were normalized to DMSO only treated cells, and normalized activities were utilized for EC50 calculations using the dose-response log (inhibitor) vs. response variable slope (four parameters) nonlinear regression feature available in GraphPad Prism 5.0 (or Dotmatics).

[5] = system: IL-6; assay: IL-6 inhibition in LPS-stimulated human PBMCs (HTRF); format: cell-based; conditions: PBMC; for EC50: IL-6, huPBMCs, LPS 50 ng/mL, 22 hours
Method: Human Peripheral Blood Mononuclear Cells: Fresh Normal PB MNC (Catalog #PB001, AllCells, Alameda, Calif.) were shipped overnight at 4° C. and resuspended in Roswell Park Memorial Institute (RPMI) 1640 Medium, with GlutaMAX Supplement (Catalog #61870127, ThermoFisher Scientific, Waltham, Mass.) supplemented with 1% Penicillin-Streptomycin (Catalog #15140163, ThermoFisher Scientific, Waltham, Mass.) and 1% fetal bovine serum (FBS) (Catalog #16140089, ThermoFisher Scientific, Waltham, Mass.) assay media.
Compound Screening: Fresh normal human peripheral blood mononuclear cells (huPBMCs) were resuspended in 1% FBS-RPMI assay media with 1% Penicillin-Streptomycin 1% to a cell concentration of 1×10e6 cells/mL. […] 50 ng/mL of Lipopolysaccharides from Escherichia coli 0111:B4 (Catalog #L5293-2ML, Sigma-Aldrich, St. Louis, Mo.) was added after 2 hours and cells were incubated for another 22 hours at 37° C.-5% CO2. After 22 hour incubation, a mixture of anti-IL6 XL665 and anti-IL-6 Cryptate diluted in reconstitution buffer (Catalog #62IL6PEC, Cisbio Inc., Bedford, Mass.) was added to each well. Following incubation for 3 hours at room temperature, Homogeneous Time-Resolved Fluorescence (HTRF) was measured using the Envision (Perkin Elmer, Shelton, Conn.) at 665 nm and […]. The ratio of fluorescence at 665 nm to 620 nm was used as a readout for IL-6 quantification. All samples were processed in duplicate. Readings were normalized to DMSO treated cells and normalized activities were utilized for EC50 calculations. EC50 was determined using software generated by Dotmatics Limited (Windhill Bishops Stortford Herts, UK) using the Levenberg-Marquardt 4 parameter fitting procedure with finite different gradients.

CN1CCC(Oc2cccc(NC(=O)c3n[nH]c4cc(F)c(-c5cnn(C)c5)cc34)c2)CC1 [Compound 151, 6-Fluoro-5-(1-methyl-1H-pyrazol-4-yl)-N-(3-((1-methylpiperidin-4-yl)oxy)phenyl)-1H-indazole-3-carboxamide]
percent value in parentheses beside EC50 >100 [1]: (3.5%)

CN1CCN(c2cccc(NC(=O)c3n[nH]c4cc(F)c(-c5cnn(C)c5)cc34)c2)CC1 [Compound 149, 6-Fluoro-5-(1-methyl-1H-pyrazol-4-yl)-N-(3-(4-methylpiperazin-1-yl)phenyl)-1H-indazole-3-carboxamide]
percent value in parentheses beside EC50 >100 [1]: (36.0%)

Cc1ncc(-c2ccc3[nH]nc(C(=O)Nc4ccc(OC5CCN(C)CC5)cc4)c3c2)s1 [Compound 82, N-(4-((1-Methylpiperidin-4-yl)oxy)phenyl)-5-(2-methylthiazol-5-yl)-1H-indazole-3-carboxamide]
percent value in parentheses beside EC50 >100 [1]: (2.9%)

5-(1,2-Dimethyl-1H-imidazol-5-yl)-N-(2-methylthiazol-5-yl)-1H-indazole-3-carboxamide [Compound 139]
percent value in parentheses beside EC50 >100 [1]: (21.2%)

O=C(Nc1ccc(F)cc1)c1n[nH]c2ccc(-c3cnc4n3CCNC4)cc12 [Compound 52, N-(4-Fluorophenyl)-5-(5,6,7,8-tetrahydroimidazo[1,2-a]pyrazin-3-yl)-1H-indazole-3-carboxamide]
EC50 ([2]; Homo sapiens, Fibroblast, 96 h): 0.54 µM

Cn1cc(-c2cc(F)c3[nH]nc(C(=O)NC4CCN(CC(F)F)CC4)c3c2)cn1 [Compound 101, N-(1-(2,2-Difluoroethyl)piperidin-4-yl)-7-fluoro-5-(1-methyl-1H-pyrazol-4-yl)-1H-indazole-3-carboxamide]
percent value in parentheses beside EC50 >100 [1]: (33.0%)

CN1CCC(Oc2ccc(NC(=O)c3n[nH]c4c(F)cc(-c5cnn(C)c5)cc34)cn2)CC1 [Compound 129, 7-Fluoro-5-(1-methyl-1H-pyrazol-4-yl)-N-(6-((1-methylpiperidin-4-yl)oxy)pyridin-3-yl)-1H-indazole-3-carboxamide]
percent value in parentheses beside EC50 >100 [1]: (13.0%)

Cc1ncc(-c2ccc3[nH]nc(C(=O)NC4CCN(CC(C)(C)F)CC4)c3c2)n1C [Compound 42, 5-(1,2-Dimethyl-1H-imidazol-5-yl)-N-(1-(2-fluoro-2-methylpropyl)piperidin-4-yl)-1H-indazole-3-carboxamide]
EC50 ([3]; Homo sapiens, 96 h): > 10 µM | EC50 ([2]; Homo sapiens, Fibroblast, 96 h): 1.36 µM | EC50 ([4]; Homo sapiens): 0.507 µM | EC50 [5]: > 10 µM | inhibition at 10 µM ([5]; read-out: percent inhibition at 10 μM): 10.4%

Cc1cc(NC(=O)c2n[nH]c3ccc(-c4cnn(C5CCN(C)CC5)c4)cc23)sn1 [Compound 143, N-(3-Methylisothiazol-5-yl)-5-(1-(1-methylpiperidin-4-yl)-1H-pyrazol-4-yl)-1H-indazole-3-carboxamide]
percent value in parentheses beside EC50 >100 [1]: (23.0%)

C[C@H]1C[C@H](NC(=O)c2n[nH]c3ccc(-c4cnn(C)c4)cc23)CCN1CC(C)(C)F [Compound 44, N-((2S,4R)-1-(2-fluoro-2-methylpropyl)-2-methylpiperidin-4-yl)-5-(1-methyl-1H-pyrazol-4-yl)-1H-indazole-3-carboxamide]
EC50 ([3]; Homo sapiens, 96 h): 1.52 µM | EC50 ([2]; Homo sapiens, Fibroblast, 96 h): 0.199 µM | EC50 ([4]; Homo sapiens): 0.279 µM | EC50 [5]: 1.03 µM

CC(C)(F)CN1CCC(n2cc(-c3ccc4[nH]nc(C(=O)Nc5ccc(OC(F)F)cc5)c4c3)cn2)CC1 [Compound 61, N-(4-(difluoromethoxy)phenyl)-5-(1-(1-(2-fluoro-2-methylpropyl)piperidin-4-yl)-1H-pyrazol-4-yl)-1H-indazole-3-carboxamide]
EC50 [3]: > 10 µM | EC50 [2]: 0.009 µM | EC50 [4]: > 10 µM

Cn1cc(-c2cc3c(C(=O)Nc4cccc(OCCN5CCCC5)c4)n[nH]c3cc2F)cn1 [Compound 154, 6-Fluoro-5-(1-methyl-1H-pyrazol-4-yl)-N-(3-(2-(pyrrolidin-1-yl)ethoxy)phenyl)-1H-indazole-3-carboxamide]
percent value in parentheses beside EC50 >100 [1]: (21.0%)
